One assay concerns HUVECs. Put plainly: Matrigel microtubule formation assay. Format: cell-based, human. The note with it: for Microtubule Formation % inhibition at 10 μM: relative to controls. The method, then:
(§1) Medium for the proliferation studies was prepared using EGM with 2% FBS and gentamicin only. In a later study, complete EGM was used for the VEGF groups in an attempt to enhance the proliferative index of VEGF-stimulated groups. For the tube formation assay, complete medium was used with only heparin omitted. Compounds under investigation were weighed out from powder stocks and diluted in PBS to 10 mM stock solutions and stored at −80° C. For experiments, compounds were subsequently diluted in EBM-2 medium (supplemented with 2% FBS and gentamicin) to various working concentration as required.
The tube formation assay was performed essentially as described by Malinda et al., with modifications.^41 HUVECs in the fourth or fifth passage at 70-80% confluence were harvested and resuspended in Lonza endothelial growth medium (EGM2) containing all supplements as directed by manufacturer, except heparin, at a cell density of 4×10^5 cells per mL. For each set of triplicate wells, 200 μL of cells (4×10^5/mL) were treated with an equal volume of compound to obtain final concentrations of 10, 50 or 100 μM (thus ensuring 1×300 μL are available for each condition). A 100 μL aliquot of cells was then plated onto 96-well plates pre-coated with growth factor reduced Matrigel™ (50 μL for 30 min followed by a further 30 μL for 1 h) and incubated for 18-22 h. Tube formation was examined by phase-contrast microscopy and images were collected using an Olympus C5050 digital camera. Tube formation inhibition was quantitated manually from images by recording the total number of nodes connecting 3 or more tubules. Untreated HUVECs were used as a control for normal cell growth and tube formation in Matrigel.

Assay [1] has as its system HUVEC proliferation induced by FGF-2. The experiment in a line: Growth factor induced endothelial cell proliferation assay, FGF-2. The note with it: 72 h, read-out: FGF-2 (IC50) inhibition of HUVEC proliferation. Format: cell-based, human.
Excerpt: (§2) HUVEC cells were maintained and subcultured according to standard cell culture protocols essentially as described by Lonza. Briefly, cells were maintained in Lonza endothelial growth media (EGM) with recommended supplements and growth factors (VEGF, FGF2, EFG, IGF, hydrocortisone, fetal bovine serum (FBS), ascorbic acid, heparin and gentamicin). Cells were subcultured when they reached 70-80% confluence by trypsinisation and reseeding in fresh growth medium in new culture vessels at 2500 to 5000 cells/cm^2 of vessel surface area. Cell counts were performed using a haemocytometer and viable cells were visualized with trypan blue.
as §1
(§3) In the first of a series of experiments, the assay was further optimized by examining the cell density and growth factor concentration required to induce maximal proliferation by growth factors. Briefly, 100 μL of cells was added to each well at concentrations between 1-3×10^3 per well. Growth factors and test compounds were then added in 50 μL volumes at specified concentrations to obtain a final volume of 200 μL. Following incubation for 70 h, 20 μL of the CellTitre 96® Aqueous One Solution Cell Proliferation Assay (Promega) was added for 2 h prior to reading the absorbance at 490 nm to obtain OD values.

Assay [2] relates to HUVEC proliferation induced by VEGF. Put plainly: Growth factor induced endothelial cell proliferation assay, VEGF. Format: cell-based, human. To be noted: 72 h, read-out: VEGF (IC50) inhibition of HUVEC proliferation.
Excerpt: as §2, §1, §3

Assay [3] relates to HUVEC proliferation induced by FGF-1. Put plainly: Growth factor induced endothelial cell proliferation assay, FGF-1. Format: cell-based, human. To be noted: 72 h, read-out: FGF-1 (IC50) inhibition of HUVEC proliferation.
Excerpt: as §2, §1, §3

The next assay has as its system HSV-1. The experiment in a line: Viral plaque number-reduction assay, HSV-1. The note with it: plaques in GMK AH1 cells (Table 9, footnote b). The method, then: African green monkey kidney (GMK AH1) cells^46 were cultured in Eagle's minimum essential medium (EMEM) supplemented with 2% calf serum, 0.05% Primaton RL substance (Kraft Inc., Norwich, USA) and antibiotics. Human epidermoid carcinoma (HEp-2) cells were cultured in Dulbecco's modified EMEM (DMEM) supplemented with 10% fetal calf serum and antibiotics. […] The RSV strain A-2^50 was used. The RSV stock was prepared as described by Hallak et al.^51 and stored at −70° C. in the presence of 40% sucrose^52.
The viral infectivity (the plaque number-reduction) assay and the plaque size-reduction assay were carried out as described previously^17. […] Subsequently, the cells were washed with 2 mL of EMEM and overlaid with 1% methylcellulose solution in EMEM. The plaques were visualized by staining with crystal violet solution after 2 (HSV-2) or 3 (HSV-1) days of incubation at 37° C. […] When the compounds were screened for anti-HSV or anti-RSV activity, mixtures of 200 PFU of the virus and the test compound (100 μg/mL) in serum-free EMEM were incubated for 10 min at room temperature before addition to cells and during the entire period of viral infection of cells and the development of viral plaques. In the plaque size-reduction assay, the compounds were added to cells (in methylcellulose overlay medium) after 2 h period of virus infection of cells in the absence of the inhibitor. After 2-3 days of incubation at 37° C., the viral plaques were visualized by staining the cells with 1% solution of crystal violet. For each compound tested, the images of twenty neighboring plaques were captured using a Leica DC300 digital camera attached to a Leitz-Wetzlar Diavert microscope. The area of each plaque was determined using IM500 image software (Leica). Similar protocols were used for RSV, except that the assays were performed in HEp-2 cells and DMEM supplemented with 2% heat-inactivated fetal calf serum was used instead of EMEM.

Where two headings read alike, the source gives them in different places. Where only a bound is given, the exact number is not on record here.

Turning to `CC(C)CCC[C@@H](C)[C@H]1CC[C@H]2[C@@H]3CC[C@H]4C[C@@H](O[C@H]5O[C@H](COS(=O)(=O)O)[C@@H](OS(=O)(=O)O)[C@H](OS(=O)(=O)O)[C@@H]5O[C@H]5O[C@H](COS(=O)(=O)O)[C@@H](OS(=O)(=O)O)[C@H](OS(=O)(=O)O)[C@@H]5OS(=O)(=O)O)CC[C@]4(C)[C@H]3CC[C@]12C` [Compound 33, 3β-Cholestanyl 2,3,4,6-tetra-O-sodium sulfonato-α-D-mannopyranosyl-(1→2)-3,4,6-tri-O-sodium sulfonato-α-D-mannopyranoside], in the assay with HUVECs (Homo sapiens, HUVEC, read-out: Microtubule Formation % inhibition at 10 μM), the inhibition at 10 µM amounted to 14%. The IC50 in assay [1] (Homo sapiens, HUVEC) is 2.22 µM; in assay [2] (Homo sapiens, HUVEC) it was 1.85 µM; in assay [3] (Homo sapiens, HUVEC), greater than 10 µM.
Consider `CC(C)CCC[C@@H](C)[C@H]1CC[C@H]2[C@@H]3CCC4CC(O[C@H]5O[C@H](COS(=O)(=O)[O-])[C@@H](OS(=O)(=O)[O-])[C@H](O[C@H]6O[C@H](COS(=O)(=O)[O-])[C@@H](OS(=O)(=O)[O-])[C@H](O[C@H]7O[C@H](COS(=O)(=O)[O-])[C@@H](OS(=O)(=O)[O-])[C@H](OS(=O)(=O)[O-])[C@@H]7OS(=O)(=O)[O-])[C@@H]6OS(=O)(=O)[O-])[C@@H]5OS(=O)(=O)[O-])CC[C@]4(C)[C@H]3CC[C@]12C.[Na+].[Na+].[Na+].[Na+].[Na+].[Na+].[Na+].[Na+].[Na+].[Na+]` (stereo partly drawn) [Compound 56, 3′-Cholestanyl 2,3,4,6-tetra-O-sodium sulfonato-α-D-mannopyranosyl-(1→3)-2,4,6-tri-O-sodium sulfonato-α-D-mannopyranosyl-(1→3)-3,4,6-tri-O-sodium sulfonato-α-D-mannopyranoside], for which, in the assay with HUVECs, the “Microtubule Formation % inhibition at 10 μM” value came out at 67%. In addition, the IC50 stood at 1.8 µM in assay [1], 1.72 µM in assay [2] and 2.52 µM in assay [3].
On the same counts, the results for `CC(C)CCC[C@@H](C)[C@H]1CC[C@H]2[C@@H]3CCC4C[C@@H](OCc5cn(CCCO[C@H]6O[C@H](COS(=O)(=O)[O-])[C@@H](OS(=O)(=O)[O-])[C@H](O[C@H]7O[C@H](COS(=O)(=O)[O-])[C@@H](OS(=O)(=O)[O-])[C@H](O[C@H]8O[C@H](COS(=O)(=O)[O-])[C@@H](OS(=O)(=O)[O-])[C@H](OS(=O)(=O)[O-])[C@@H]8OS(=O)(=O)[O-])[C@@H]7OS(=O)(=O)[O-])[C@@H]6OS(=O)(=O)[O-])nn5)CC[C@]4(C)[C@H]3CC[C@]12C.[Na+].[Na+].[Na+].[Na+].[Na+].[Na+].[Na+].[Na+].[Na+].[Na+]` (stereo partly drawn) [Compound 60, 3-{4-(Cholestan-3β-yl-oxymethyl)-[1,2,3]triazol-1-yl}propyl 2,3,4,6-tetra-O-sodium sulfonato-α-D-mannopyranosyl-(1→3)-2,4,6-tri-O-sodium sulfonato-α-D-mannopyranosyl-(1→3)-3,4,6-tri-O-sodium sulfonato-α-D-mannopyranoside] are 49%, 1.22 µM, 1.44 µM and 2.61 µM.
On to `CC(C)CCC[C@@H](C)[C@H]1CC[C@H]2[C@@H]3CCC4CC(OCc5cn([C@@H]6O[C@H](COS(=O)(=O)[O-])[C@@H](O[C@H]7O[C@H](COS(=O)(=O)[O-])[C@@H](O[C@H]8O[C@H](COS(=O)(=O)[O-])[C@@H](OS(=O)(=O)[O-])[C@H](OS(=O)(=O)[O-])[C@H]8OS(=O)(=O)[O-])[C@H](OS(=O)(=O)[O-])[C@H]7OS(=O)(=O)[O-])[C@H](OS(=O)(=O)[O-])[C@H]6OS(=O)(=O)[O-])nn5)CC[C@]4(C)[C@H]3CC[C@]12C.[Na+].[Na+].[Na+].[Na+].[Na+].[Na+].[Na+].[Na+].[Na+].[Na+]` (stereo partly drawn) [Compound 70, 4-(Cholestan-3-yl-oxymethyl)[1,2,3]triazol-1-yl 2,3,4,6-tetra-O-sodium sulfonato-α-D-glucopyranosyl-(1→4)-2,3,6-tri-O-sodium sulfonato-α-D-glucopyranosyl-(1→4)-1-deoxy-2,3,6-tri-O-sodium sulfonato-β-D-glucopyranoside], for which, in the assay with HUVECs, the “Microtubule Formation % inhibition at 10 μM” value is 52%. In addition, the “HSV-1 KOS321 strain IC50” value in the assay with HSV-1 was found to be 0.25 µg/mL. The figures for the IC50 in assay [1], in assay [2] and in assay [3] were 0.64 µM, 2.2 µM and 2.3 µM, respectively.
For `CCCCCCCCCCCCCCCCCC(=O)NCCCO[C@@H]1O[C@H](COS(=O)(=O)[O-])[C@@H](O[C@H]2O[C@H](COS(=O)(=O)[O-])[C@@H](O[C@H]3O[C@H](COS(=O)(=O)[O-])[C@@H](O[C@H]4O[C@H](COS(=O)(=O)[O-])[C@@H](OS(=O)(=O)[O-])[C@H](OS(=O)(=O)[O-])[C@H]4OS(=O)(=O)[O-])[C@H](OS(=O)(=O)[O-])[C@H]3OS(=O)(=O)[O-])[C@H](OS(=O)(=O)[O-])[C@H]2OS(=O)(=O)[O-])[C@H](OS(=O)(=O)[O-])[C@H]1OS(=O)(=O)[O-].[Na+].[Na+].[Na+].[Na+].[Na+].[Na+].[Na+].[Na+].[Na+].[Na+].[Na+].[Na+].[Na+]` [Compound 128, 3-Stearamidopropyl 2,3,4,6-tetra-O-sulfo-α-D-glucopyranosyl-(1→4)-2,3,6-tri-O-sulfo-α-D-glucopyranosyl-(1→4)-2,3,6-tri-O-sulfo-α-D-glucopyranosyl-(1→4)-2,3,6-tri-O-sulfo-β-D-glucopyranoside, tridecasodium salt], in assay [1] (Homo sapiens, HUVEC), the IC50 was 0.77 µM.

Broadly, the inhibition is how much of the control response was suppressed.

The record behind these values is US20150065440A1 (Progen Pharmaceuticals Limited, priority 2007, published 2015).
